This note sets out measurements from patent US20260263638A1, “COMPOSITIONS AND METHODS TO IMPROVE RNA PROPERTIES USING BASE, PHOSPHODIESTER LINKAGE, SUGAR BACKBONE, AND CAP MODIFICATIONS” (The Broad Institute, Inc., priority 2023, published 2026).

Strand notation (5' to 3'): a small letter for the sugar, then the base; units joined by * are phosphorothioate-linked, units joined directly phosphodiester-linked; [ ] holds rarer units or linkages, { } end groups; capitals alone tell only the bases. {m7G} = 7-methylguanosine cap nucleotide; l = locked nucleic acid (LNA); m = 2'-O-methyl; r = 2'-OH (RNA); {P} = phosphate

Series [1] addresses T1, human decapping enzyme 2 (hDcp2) (Homo sapiens, UniProt Q8IU60).
T1 construct: purchased Enzymax LLC 86
Description: hDcp2 decapping assay. The class given is biochemical. The settings on record: 23-nt capped oligos; for Susceptibility / resistance to hDcp2 decapping: result in words. As for the experimental part: Next, the influence of modifications on decapping activity was examined. To this end, 23-nucleotide (23-nt) oligonucleotides with various modification patterns were subjected to decapping reactions and analyzed at different time intervals (FIGS. 14E and 9I).
500 ng of capped oligos were incubated in 75 μL decapping reaction buffer (10 mM Tris-HCl (pH 7.5), 100 mM NaCl, 2 mM MgCl2, 1 mM DTT, 2 mM MnCl2, 1:25 SUPERaseIn (v/v)) with 300 ng of hDcp2 [Enzymax LLC, 86] at 37° C. At indicated time points, 5 μL of reaction mixture was aliquoted out into 10 μL of denaturing gel-loading buffer [NEB, B0363S, with urea added to a final concentration of 5 M] and cooled to −20° C. until all time points were collected. The fractions were analyzed by PAGE using Novex 15% TBE-Urea gel [Invitrogen, EC6885BOX] by running at 100 V for 2 hours and stained by 1×SYBR Gold [ThermoFisher Scientific, S11494], and visualized using BioRad ChemiDoc MP Imaging System [12003154]. Band intensities were quantified using ImageJ.

The subject of series [2] is HeLa cells. Nature of the series: Time-course dual luciferase assay of modified Firefly luciferase mRNA (Renilla control). In kind it is cell-based. The settings on record: HeLa cells; 8-, 24-, 48-hours post-transfection; benchmark m7G-rG. As for the experimental part:
The modularity of this workflow enabled divergent construction and evaluation of mRNAs featuring four different types of cap and 5′ UTR modifications (FIG. 8A): (1) base identities within the 5′ UTR, including as locations beyond the third base (+3 position), (2) phosphodiester linkages within the 5′ UTR, (3) sugar backbone modifications within the 5′ UTR, and (4) cap modifications. The effects of all of these different types of modifications on protein translation were assayed using Firefly luciferase reporter at 8-, 24-, and 48-hours post-transfection.
HeLa cells [ATCC, CCL-2] were maintained in DMEM culture media [ThermoFisher Scientific, 119951] containing 10% FBS and 1% penicillin-streptomycin [ThermoFisher Scientific, 15070063] in a 37° C. incubator with 5% CO2 and passaged at a ratio of 1:10 every 3 days. On the day before mRNA transfection, HeLa cells were seeded at 90% confluence in individual wells on 24-well plates. The following day, 50 ng of Renilla luciferase (internal control) mRNA and 50 ng of modified Firefly luciferase mRNA were transfected using Lipofectamine MessengerMAX Transfection Reagent [ThermoFisher Scientific, LMRNA003] per manufacturer's protocols. Additional controls that contain only Renilla luciferase mRNA or lipofection reagent only were included. Three individual transfections were conducted for each condition. 6 hours after transfection, the transfection media was removed, and cells were trypsinized and reseeded to three white clear-bottom 96-well plates [Corning, 3610] in phenol-red-free media. At 8-, 24-, and 48-hours post-transfection, cell culture media was removed and cells were rinsed with DPBS. Cells were lysed and luciferase activity was measured using the Promega Dual Glo Luciferase Assay System [Promega, E2920]. Firefly luminescence/Renilla luminescence for each well was used as mRNA activity readout. In cases where Nluc and Fluc were used, the protocol was conducted similarly using the Nano-Glo Dual-Luciferase Reporter Assay System [Promega, N1610].

In series [3] the target is T2, eIF4E (Homo sapiens, UniProt P06730).
T2 construct: His; purchased Cayman Chemical Inc 25150
T2 sequence (P06730 whole entry): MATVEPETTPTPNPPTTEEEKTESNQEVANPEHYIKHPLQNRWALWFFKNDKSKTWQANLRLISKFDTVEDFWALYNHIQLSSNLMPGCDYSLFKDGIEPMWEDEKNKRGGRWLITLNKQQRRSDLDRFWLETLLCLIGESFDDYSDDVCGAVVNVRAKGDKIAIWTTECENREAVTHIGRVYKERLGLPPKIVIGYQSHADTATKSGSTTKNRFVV
Nature of the series: eIF4E electrophoretic mobility shift assay (EMSA). In kind it is binding. As to conditions: AF647-labeled capped oligos, read-out: eIF4E dissociation constant (Kd). As for the experimental part:
(§1) eIF4E affinity to fluorophore-labeled capped RNA oligonucleotides was quantified through electrophoretic mobility shift assay (EMSA) (FIGS. 14D and 9A-9E).
(§2) Capped oligonucleotides were labeled on the 3′ end using AF647 labeled cytidine-5′-phosphate-3′-(6-aminohexyl) phosphate [Jena Bioscience, NU-1706-AF647] and T4 RNA ligase ligated AF647-labeled cytidine onto the capped oligos using manufacturer's protocols. Oligos were then incubated in the binding buffer (1 mM DTT, 50 mM KCl, 10 mM Tris-HCl (pH 7.6), Novex Hi-Density TBE Sample Buffer [Invitrogen, LC6678]) with varying eIF4E-His [Cayman Chemical Inc, 25150] concentrations prepared by sequential dilutions from the stock solution. The oligos and […] were incubated at 4° C. for 30 mins and characterized by EMSA with Novex TBE Gels, 4-20% [Invitrogen, EC6225BOX] at 4° C. AF647 labeled oligos were imaged with BioRad ChemiDoc MP Imaging System [12003154] and band intensities were quantified using ImageJ. For Kd calculation, the proportions of bound were plotted against eIF4E concentration using GraphPad Prism (Specific binding with Hill slope).
(Mobility shift assays separate free from complexed probe on a gel.)

Series [4] relates to HeLa cells. Description: NLuc bioluminometry of circRNA/QRNA (Fluc transfection control). The settings on record: capped oligo:circRNA up to 80:1 molar ratio. The class given is cell-based. As for the experimental part:
Synthetic linear mRNA encoding NanoLuciferase (NLuc) was prepared from DNA template by IVT with 100% m1ψ substitution. The triphosphorylated mRNA after IVT was then treated with Calf Intestinal Alkaline Phosphatase (CIAP) to yield 5′/3′-hydroxyl mRNA. A chemically synthesized oligonucleotide with a branched m7G cap and 5′/3′-phosphates was then ligated to the 5′/3′-hydroxyl mRNA by T4 RNA ligase, which ligates the 5′-phosphate on the oligo and 3′-hydroxyl of the mRNA. The ligation product was then further treated with RtcB ligase, which ligates the 5′-hydroxyl and 3′-phosphate ends to enable intramolecular circularization. […] Using one primer only produced no fragmentation but only linearization, confirming successful circularization. Using double primers produced fragments flanking the branched region, where branched topology was confirmed by gel shift. […] NLuc bioluminometry was measured 8 hrs post transfection and normalized Firefly luciferase as transfection control. Mean±s.e.m., n=3. P values were calculated by ordinary one-way ANOVA (alpha=0.05), with multiple comparisons to circ-NLuc with only 5-octadiynyl deoxyuridine (OU) handle (construct 45). ****P<0.0001, n.s. P>0.05. […] QRNA with m7G (construct 48) was compared. n=3, biological replicates. Mean±sem. P values were calculated by ordinary one-way ANOVA with multiple comparisons against construct 61 without any cotransfected capped oligos (Dunnett's multiple comparison test). […] P values were calculated by unpaired two-sided t-test.
HeLa cells [ATCC, CCL-2] were maintained in DMEM culture media [ThermoFisher Scientific, 119951] containing 10% FBS and 1% penicillin-streptomycin [ThermoFisher Scientific, 15070063] in a 37° C. incubator with 5% CO2 and passaged at a ratio of 1:10 every 3 days. […] Cells were lysed and luciferase activity was measured using the Promega Dual Glo Luciferase Assay System [Promega, E2920]. Firefly luminescence/Renilla luminescence for each well was used as mRNA activity readout. […]

Another series relates to reticulocytes. Nature of the series: Plasma reticulocyte counting by flow cytometry. In kind it is in vivo. The settings on record: mice. As for the experimental part: (§3) mRNA diluted in 50 mM citrate buffer (pH 4) and lipid mix (37.5 mM in ethanol) containing 50 mol % SM-102, 10 mol % DSPC, 38.5 mol % Cholesterol, and 1.5 mol % DMG-PEG2000 were assembled into LNP using a NanoAssemblr Spark instrument [Precision Nanosystems]. Upon formulation, mRNA-LNPs were diluted in 12 mL 1×PBS solution and the buffer was exchanged by concentrating with a 30 kDa spin filter [MilliporeSigma, UFC901008] to remove residue ethanol. Concentrations and encapsulation efficiency of mRNA were determined using Quant-it RiboGreen RNA Assay Kit [ThermoFisher, R11490]. 1 μg NanoLuc or hEPO mRNA-LNP in a total volume of 100 μL was injected through retro orbital injection into each mouse. Four mice were used for each condition of each experiment (NanoLuc imaging, hEPO ELISA, and reticulocyte counting). For NanoLuc imaging, PBS injection was used as negative control. For hEPO/reticulocyte experiments, poly(C)-LNP complex was used as negative control.
10 μL […] sample was added into 1 mL of the Reticulocyte Reagent [BD Bioscience] at the indicated time points and the mixture was incubated at room temperature for 30 minutes with protection from light. The samples were analyzed with Beckman CytoFLEX LX Flow Cytometer with 100,000-event records for each sample. Thiazole orange positive cells are defined as reticulocytes.
On the technique in general: Flow cytometry measures light scatter and fluorescence of single cells or particles in a stream.

The nature of series [5]: Quantification of plasma hEPO by ELISA after mRNA-LNP injection. In kind it is in vivo. The settings on record: mice; hEPO mRNA-LNP retro-orbital; 6 hours. As for the experimental part:
All animal procedures followed animal care guidelines approved by the Institutional Animal Care and Use Committee (IACUC) of the Broad Institute of MIT and Harvard under animal protocol #0255-08-19. Animal experiments were conducted in compliance with IACUC policies and NIH guidelines. The BALB/cj (male, 6~8 weeks old) mice used for in vivo NanoLuc assay in this study were purchased from The Jackson Laboratory (JAX). The C57BL/6 mice (female, 7 weeks old), used for hEPO assay in this study were purchased from The Jackson Laboratory (JAX).
as §3
At the indicated time points, approximately 100 μL of blood was collected with EDTA-coated capillary tubes from each mouse and then transferred to an EDTA-coated tube. The collected blood samples were centrifuged at 2000 g for 10 min, followed by transferring the resulting plasma into another tube. The hEPO levels in the plasma samples were measured by Human Erythropoietin (EPO) ELISA kit [LEGEND MAX, 442907]. Final concentrations for hEPO were adjusted based on the volume and dilution fold.
A general note: ELISA stands for enzyme-linked immunosorbent assay.

Series [6] addresses eIF4E (UniProt P06730 P06730:1-217). Description: EMSA; 50 mM KCl, 10 mM Tris-HCl pH 7.6, 1 mM DTT, 4 C. As to conditions: tags: His tag; Cayman Chemical 25150; label: 3' AF647-cytidine (EMSA). As for the experimental part:
as §1, §2

eIF4E (UniProt P06730 P06730:1-217), sequence (P06730 whole entry, one chain of several): as the sequence (P06730 whole entry) above

Broadly, the Kd is the constant that tells how readily two partners part at equilibrium. For “construct 15: m7G cap; /5Phos/mAmGmAmGmAmArUrArArArArA (SEQ ID NO: 16) ({P}-mAmGmAmGmAmArUrArArArArA; m7G cap on the 5'-phosphate)”, the “Susceptibility / resistance to hDcp2 decapping” value is listed as “increased decapping resistance to a similar level as LNA modification” in series [1] (listed as 2′OMe at first 6 bases) and “increased decapping resistance” in series [1] (listed as 2′OMe within the first 6 bases). For the same molecule, the “Protein expression (Firefly luciferase luminescence normalized to Renilla, then to m7G-rG), fold increase” value in the series on HeLa cells [2] is 6.9 fold. Moreover, the Kd in the series with eIF4E [3] was 2450 ± 140 nM.
“construct 22: LNAm7G cap; /5Phos/+ArGrArGrArArUrArArArArA (SEQ ID NO: 23) ({P}-lArGrArGrArArUrArArArArA; LNA-modified m7G cap on the 5'-phosphate)”: in series [1] (after 60 minutes), the “Capped transcripts remaining after hDcp2 decapping” value is 71%~73. In addition, the “Protein expression (Firefly luciferase luminescence normalized to Renilla, then to m7G-rG), fold increase” value in the series on HeLa cells [2] is listed as 8.6 fold. For the same molecule, the Kd with eIF4E [3] worked out at 1420 ± 126 nM.
Take “construct 43: m7G cap; /5Phos/mAmGmAmGmAmAmUmAmAmAmAmAmAmGmGmGmAmAmUmAmAmAmC (SEQ ID NO: 26) ({P}-mAmGmAmGmAmAmUmAmAmAmAmAmAmGmGmGmAmAmUmAmAmAmC; m7G cap on the 5'-phosphate)”: the “Susceptibility / resistance to hDcp2 decapping” value in series [1] is given as “increased decapping resistance to a similar level as LNA modification”.
For the molecule “construct 61: m1ψ NLuc circRNA with 20-nt insert, annealed non-covalently to m7G-capped complementary oligo (SEQ ID NO: 116, 177) (chain 1 AAAAACUUACCAAGCGAAGAACAGAAAAA; chain 2 GUCUGUUCUUCGCUUGGUAAG; m1ψ; circRNA; m7G-capped complementary oligo annealed; modified_base 1 OTHER; 5'-phosphate modified nucleotide; modified_base 29 OTHER; 3'-phosphate modified nucleotide; 5'-phosphate modified 7-methylguanosine)”, the “Enhancement of NLuc protein production by non-covalent complementary capped oligo” value with HeLa cells [4] is on record as “up to 5 fold”.
Consider “construct S21: hEPO mRNA with m7G-rG cap, in LNP (SEQ ID NO: 138) (GGAGAAUAAAAA; RNA, 5' {m7G}, backbone not given here; capped 5' oligo ligated to hEPO mRNA, formulated in LNP) [reference compound]”, for which the “Effect on reticulocyte counts, result in words” value in the series with reticulocytes (day 6, vs poly(C)-LNP) is “non-significant”. Moreover, in the series with reticulocytes (day 6 post-administration), the “Reticulocytes, % of total red blood cells” value came to 4±0.3%. For the same molecule, the “Peak plasma hEPO expression” value in series [5] was 733±123 mlU/mL.
With AGAGAAUAAAAA (ssRNA, 5' m7G cap; 2'-OMe at positions 1-6) [m7G-6x2OMe (15)], the affinity with eIF4E [6], expressed as Kd, was 2450 nM.
Still for that read-out and setting: the same measure for AGAGAAUAAAAA (ssRNA, 5' m7G cap with LNA sugar; 2'-OMe at positions 1-6) [LNAm7G-2OMex6 (24)]: 1570 nM; for AGAGAAUAAAAA (ssRNA, 5' m7G cap with LNA sugar; LNA at position 1) [LNAm7G-LNA (22)]: 1420 nM.
